Holding throughout (assay type): functional, cell-based
Experiment [1] concerns A549. In words: Compound was tested for potency against human lung A549 cells using sulforhodamine B assay. (In general: Sulforhodamine B stains cellular protein and so reports cell mass.)
Experiment [2] concerns L1210. In words: Compound was tested for potency against multi drug resistant murine leukemia L1210 cells. The following applies: Mus musculus.
Experiment [3] deals with L1210. The experiment is described as follows: Compound was tested for potency against multidrug-resistant murine leukemia L1210 cells. The following applies: Mus musculus.
The test system of experiment [4] is RPMI-8226. In words: Compound was tested for potency against human myeloma 8226 cells (40 fold resistant to doxorubicin).
The subject of experiment [5] is RPMI-8226. The experiment is described as follows: Compound was tested for potency against human myeloma 8226 cells using MTT assay method. In general terms: Tetrazolium dyes change colour on reduction, which living cells bring about.
Experiment [6] deals with SW480. The experiment is described as follows: Compound was tested for potency against human colon carcinoma SW 480 cells in a sulforhodamine B assay.
Another experiment relates to WiDr. In words: Compound was tested for potency against human colon carcinoma WiDr cells in a sulforhodamine B assay.
Experiment [7] has as its system SW480. In words: Compound was tested for potency against human colon carcinoma SW 480 cells in a sulforhodamine B assay; UA=Potency was so low that the IC50 was unachievable.
In experiment [8] the test system is A549. The experiment is described as follows: Compound was tested for potency against human lung A549 cells using sulforhodamine B assay; UA=Potency was so low that the IC50 was unachievable.

Bounds are passed on as bounds.

By IC50 is commonly meant the concentration needed to halve the response being measured. Higher therefore signals lower potency. With `CN(C)CCNC(=O)c1ccc(C(=O)NCCN(C)C)c2cc3ccccc3cc12`, the concentration for half-maximal inhibition (IC50) in the experiment on A549 [1] worked out at 0.71 µM; in the experiment on L1210 [2], 29 µM; in the experiment with L1210 [3], 4.2 µM; in the experiment with RPMI-8226 [4], 5 µM; in the experiment with RPMI-8226 [5] it was 3.3 µM; in the experiment on SW480 [6], 3.2 µM. In the experiment with WiDr, this compound returned an IC50 of 1.4 µM.
As for `CN(C)CCNCc1ccc(CBr)c2cc3ccccc3cc12`, the IC50 in the experiment on A549 [1] was 91 µM; with L1210 [2], 188 µM; in the experiment with L1210 [3] it was 52 µM; with RPMI-8226 [4] it was 4 µM; in the experiment with RPMI-8226 [5] it was 12 µM; in the experiment with SW480 [7], “Unachievable”. Moreover, the half-inhibitory concentration (IC50) in the experiment with WiDr was 15 µM.
With `CN(C)CCNCc1ccc(CNCCN(C)C)c2cc3ccccc3cc12`, the IC50 in the experiment with A549 [1] turned out to be 8.1 µM; with L1210 [2], 8.3 µM; in the experiment with L1210 [3] it was 2.8 µM; in the experiment on RPMI-8226 [4], 4 µM; in the experiment with RPMI-8226 [5], 7 µM; in the experiment with SW480 [6] it was 19 µM. Further, in the experiment on WiDr, the IC50 is 17 µM.
For `CN(C)CCNCc1c2ccccc2c(CNCCN(C)C)c2ccccc12`, the half-maximal inhibitory concentration (IC50) was 5 µM with A549 [1]; 3.6 µM in the experiment on L1210 [2]; 3.3 µM in the experiment on L1210 [3]; 3 µM with RPMI-8226 [4]; 3 µM with RPMI-8226 [5]; 5 µM in the experiment on SW480 [6]. In the experiment with WiDr, this compound yielded an IC50 of 4 µM.
Take `CN(C)CCNC(=O)c1c2ccccc2c(C(=O)NCCN(C)C)c2ccccc12`: the 50% inhibitory concentration (IC50) with A549 [1] is 99 µM; in the experiment on L1210 [2], 140 µM; in the experiment with L1210 [3], 44 µM; in the experiment with RPMI-8226 [4], more than 10 µM; in the experiment on RPMI-8226 [5], more than 10 µM; in the experiment on SW480 [6] it was 44 µM. Further, the midpoint of inhibition with WiDr, the IC50, lay at 26 µM.
Regarding `C(=N\NC1=NCCN1)/c1ccc(/C=N/NC2=NCCN2)c2cc3ccccc3cc12`, the IC50 in the experiment with A549 [1] was determined as 5 µM; in the experiment on L1210 [2], 13 µM; with L1210 [3], 2.6 µM; in the experiment on RPMI-8226 [4], 6.7 µM; in the experiment on RPMI-8226 [5], 5.6 µM; with SW480 [6], 0.72 µM. Besides, in the experiment on WiDr, inhibition was half-maximal at 1.6 µM (IC50).
As to `CN(C)CCNC(=O)c1ccc(C(=O)NCCN(C)C)c2c1C(=O)c1ccccc1C2=O`, the IC50 result was “Unachievable” in the experiment on A549 [8]; 73 µM in the experiment with L1210 [2]; 63 µM in the experiment on L1210 [3]; 5 µM with RPMI-8226 [4]; more than 10 µM in the experiment on RPMI-8226 [5]; “Unachievable” in the experiment with SW480 [7]. The compound further returned a half-maximal inhibitory concentration (IC50) with WiDr of 4.5 µM.
In the case of `C(=N\NC1=NCCN1)/c1c2ccccc2c(/C=N/NC2=NCCN2)c2ccccc12` [BISANTRENE], the IC50 stood at 0.017 µM in the experiment on A549 [1]; 3.2 µM in the experiment with L1210 [2]; 0.049 µM with L1210 [3]; 9.1 µM in the experiment with RPMI-8226 [4]; 0.018 µM in the experiment on RPMI-8226 [5]; 0.09 µM in the experiment with SW480 [6]. The same compound yielded a half-maximal inhibitory concentration (IC50) in the experiment with WiDr of 0.79 µM.

For the origin of these results see ChEMBL document CHEMBL1130230, “1,4-disubstituted anthracene antitumor agents” (J Med Chem, 1997).
